Results from PMC7451656, “In vitro and in vivo growth inhibitory activities of cryptolepine hydrate against several Babesia species and Theileria equi” (PLoS Neglected Tropical Diseases, 2020).

Tests used:
[1] = system: Madin–Darby bovine kidney (MDBK) cell line; assay: cells; format: cell-based; conditions: for EC50: Bos taurus, MDBK, 24 h, cell viability, CCK-8
Procedure: (§1) Madin–Darby bovine kidney (MDBK) (ECACC), mouse embryonic fibroblast (NIH/3T3 ATCC CRL-1658) and Human foreskin fibroblast (HFF HFF-1 ATCC SCRC-1041) cell lines were recovered from -80°C stock and cultured continuously in our laboratory at 37°C in a humidified incubator with 5% CO2. In 75 cm^2 culture flasks, NIH/3T3 and HFF cell lines were maintained with Dulbecco’s Modified Eagle’s Medium (DMEM; Gibco, Grand Island, NY, USA), while the MDBK cell line was maintained with Minimum Essential Medium Eagle (MEM; Gibco). Ten percent fetal bovine serum, 1% glutamine, and 0.5% penicillin/streptomycin (Gibco) were added to all media and the cells were stained with 4, 6-diamidino-2-phenylindole dihydrochloride (DAPI; Sigma-Aldrich, St. Louis, MO, USA) to ensure that they were free from mycoplasma contamination. Afterward, the cells were washing twice with Dulbecco’s phosphate-buffered saline and TrypLE Express (Gibco) was used for cell detachment from the culture flask. Finally, Neubauer improved C-Chip (NanoEntek Inc., Seoul, Korea) was used for counting the viable cells after staining with 0.4% trypan blue solution.
(§2) The cytotoxicity assay was performed in accordance with the previously described protocol. Briefly, the assay was carried out using 96-well plates at 37 °C in a humidified incubator with 5% CO2, 100 μl of cells at a density of 5 x 10^4 cells/ml was seeded per well and allowed to attach to the plate for 24 h. Ten microliters of twofold drug dilutions was added to each well to a final concentration of 0.781 to 100 μM in triplicate and incubated for another 24 h. Ten μl of Cell Counting Kits-8 (CCK-8; Dojindo, Japan) was added to each well and incubated for another 3 h, and the absorbance was measured at 450 nm using a microplate reader.

[2] = system: human foreskin fibroblast (HFF) cell line; assay: cells; format: cell-based; conditions: for EC50: Homo sapiens, cell viability, HFF, 24 h, CCK-8
Procedure: as §1, §2

[3] = system: mouse embryonic fibroblast (NIH/3T3) cell line; assay: cells; format: cell-based; conditions: for EC50: Mus musculus, NIH3T3, cell viability, NIH/3T3, 24 h, CCK-8
Procedure: as §1, §2

[4] = system: B. microti small-subunit rRNA (ss-rRNA) gene; assay: Nested PCR detection of B. microti DNA in blood of treated mice; format: in vivo, Babesia microti
Procedure: The promising effect of CRY in vitro encouraged us to evaluate its in vivo effects against B. microti in mice. The assay was conducted in accordance with the previously described protocol. In two separate trials, 35 female 8-week-old BALB/c mice, housed under a pathogen-free environment with controlled humidity, temperature (22°C) and a 12 h light/ dark cycle were caged in seven groups, each group consisting of five mice. Six groups were i.p. injected with 0.5 ml of inoculum (1×10^7 B. microti iRBCs), while the seventh group was left uninfected and untreated to act as a negative control. When the average parasitemia in all infected mice reached approximately 1%, the 5-day drug treatment was initiated. The first and second groups were i.p. injected with 25 mg/kg body weight (BW) of DA and 5 mg/kg BW of CRY, respectively. The third group received 20 mg/kg BW of AQ orally, while the fourth and fifth groups were administered a combination of 2.5 mg/kg BW CRY + 12.5 mg/kg BW DA and 2.5 mg/kg BW CRY + 10 mg/kg AQ via a route similar to that of the single-drug treatment, respectively. The sixth group received 5% DMSO in physiological saline i.p. as a positive control. Parasitemia and hematology profiles (RBCs, hemoglobin (HGB), and HCT) were monitored every 2 and 4 days by microscopic examination and hematology analyzer (Celltac α MEK-6450, Nihon Kohden Corporation, Tokyo, Japan), respectively. On day 49, all mice were euthanized using an anesthesia system containing isoflurane and the blood was collected by cardiac puncture for PCR detection of the parasites.
The nested PCR (nPCR) that targeted the B. microti small-subunit rRNA (ss-rRNA) gene was performed in accordance with the previously described protocol and the genomic DNA was extracted from blood samples collected from all mice groups on day 49 post-infection (p.i.) using a QIAamp DNA Blood Mini Kit (Qiagen, Tokyo, Japan). PCR cycling conditions were performed as previously described and the bands with an expected size of 154 bp were considered positive.

Compound | inhibition of cell line at 100 μM [1] | EC50 [1] [µM] | inhibition of cell line at 100 μM [2] | EC50 [2] [µM] | inhibition of cell line at 100 μM [3] | EC50 [3] [µM] | parasite DNA in blood (nPCR) ([4]; day 49, 20 mg/kg AQ) | parasite DNA in blood (nPCR) ([4]; day 49, 5 mg/kg CRY)
O=C1C(O)=C([C@H]2CC[C@H](c3ccc(Cl)cc3)CC2)C(=O)c2ccccc21 [AQ, atovaquone] | did not show any inhibition | > 100 | did not show any inhibition | > 100 | did not show any inhibition | > 100 | not detected | –
Cn1c2c3ccccc3nc-2cc2ccccc21 [CRY, Cryptolepine hydrate] | – | 86.7 ± 4.43 | did not show any inhibition | > 100 | – | 95.3 ± 2.7 | – | still detected
